In data set [1] the test system is Staphylococcus aureus. The data set is described as follows: Antibacterial activity against Staphylococcus aureus 29213 by microdilution method. In kind it is functional.
Data set [2] concerns the target T1, Enoyl-[acyl-carrier-protein] reductase [NADPH] FabI (Staphylococcus aureus, UniProt Q6GI75).
T1 sequence (Q6GI75 whole entry): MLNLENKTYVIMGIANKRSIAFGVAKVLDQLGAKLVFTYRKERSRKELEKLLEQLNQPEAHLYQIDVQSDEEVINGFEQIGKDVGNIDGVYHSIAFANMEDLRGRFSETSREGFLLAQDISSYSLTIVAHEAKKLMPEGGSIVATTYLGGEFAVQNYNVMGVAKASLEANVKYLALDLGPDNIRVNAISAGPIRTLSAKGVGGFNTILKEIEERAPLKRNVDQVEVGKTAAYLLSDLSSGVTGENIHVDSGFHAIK
The data set is described as follows: Inhibition of Staphylococcus aureus FabI.

The subject of data set [3] is Escherichia coli. The data set is described as follows: Antibacterial activity against Escherichia coli AG100A […] by microdilution method. In kind it is functional. Background: Broth dilution looks for growth in wells or tubes with falling amounts of substance.
For data set [4], the system named is Staphylococcus aureus. The data set is described as follows: Antibacterial activity against methicillin-resistant Staphylococcus aureus 43300 by microdilution method. It counts as functional.
The nature of data set [5]: Aqueous solubility at pH 4.0. It counts as physicochemical.
Data set [6] in a line: Aqueous solubility at pH 7.4. It counts as physicochemical.
In data set [7] the target is T2, Enoyl-[acyl-carrier-protein] reductase [NADH] FabI (Escherichia coli K-12, UniProt P0AEK4).
T2 sequence (P0AEK4 whole entry): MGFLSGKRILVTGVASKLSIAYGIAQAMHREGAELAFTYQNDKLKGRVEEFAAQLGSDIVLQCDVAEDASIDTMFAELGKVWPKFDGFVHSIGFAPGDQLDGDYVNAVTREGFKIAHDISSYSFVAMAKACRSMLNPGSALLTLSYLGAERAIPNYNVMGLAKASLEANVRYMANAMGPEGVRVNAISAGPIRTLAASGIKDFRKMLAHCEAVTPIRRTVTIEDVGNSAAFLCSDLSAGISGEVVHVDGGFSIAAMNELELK
As to the kind of experiment: Inhibition of Escherichia coli FabI assessed as effect on NAD(P)H consumption.

The structures appear in SMILES notation. In brackets after ≈: the same amount, converted by molar mass. A value given as a limit tells only on which side of the number the result lay.

As a reminder, the MIC is the least concentration at which growth counts as inhibited. Usually IC50 stands for the concentration at which inhibition is half-maximal. Turning to `Cc1c(CN(C)C(=O)/C=C/c2cnc3c(c2)CCC(=O)N3)sc2ccccc12`, the MIC in data set [1] is 0.125 µg/mL (≈ 0.319 µM); in data set [3], 4 µg/mL (≈ 10.2 µM); in data set [4] it was 0.063 µg/mL (≈ 0.161 µM). The 50% inhibitory concentration (IC50) in data set [2] was 30 nM.
By solubility is commonly meant the dissolved amount per volume that the medium holds. Take `Cc1c(CN(C)C(=O)/C=C/c2cnc3c(c2)CC2(CCNCC2)C(=O)N3)oc2ccccc12`: the solubility in data set [5] amounted to 1500 µg/mL (≈ 3370 µM); in data set [6] it was 100 µg/mL (≈ 225 µM). Besides, the MIC is 0.031 µg/mL (≈ 0.0697 µM) in data set [1], no more than 0.063 µg/mL in data set [3] and 0.031 µg/mL (≈ 0.0697 µM) in data set [4]. Also, the IC50 in data set [7] was found to be 0.7 nM; in data set [2] it was 49 nM.
For the compound `CCCOc1c(CN(C)C(=O)/C=C/c2cnc3c(c2)CC2(CCN(C)CC2)C(=O)N3)cccc1OC`, the figures for the solubility in data set [5] and in data set [6] were 1500 µg/mL (≈ 3040 µM) and 1000 µg/mL (≈ 2030 µM), respectively. For the same compound, the MIC in data set [1] was 0.031 µg/mL (≈ 0.0629 µM); in data set [3], 4 µg/mL (≈ 8.12 µM); in data set [4] it was 0.125 µg/mL (≈ 0.254 µM). In addition, the IC50 is 55 nM in data set [7] and 26 nM in data set [2].
In the case of `Cc1c(CN(C)C(=O)/C=C/c2cnc3c(c2)CN(CCN2CCOCC2)C(=O)N3)sc2ccccc12`, the figures for the solubility in data set [5] and in data set [6] were greater than 67 µg/mL and 6.1 µg/mL (≈ 12.1 µM), respectively. Further, the minimal inhibitory concentration (MIC) in data set [1], in data set [3] and in data set [4] was no more than 0.063 µg/mL each time. Besides, the IC50 in data set [7] came out at 7 nM; in data set [2], 26 nM.
Compound `CN(Cc1cc2ccccc2n1C)C(=O)/C=C/c1cnc2c(c1)CCC(=O)N2` came in with a solubility in data set [6] of 5.8 µg/mL (≈ 15.5 µM). The minimum inhibitory concentration (MIC) was no more than 0.016 µg/mL in data set [1], no more than 0.063 µg/mL in data set [3] and 0.016 µg/mL (≈ 0.0427 µM) in data set [4]. The IC50 in data set [7] was found to be 139 nM.
Take `Cc1c(CN(C)C(=O)/C=C/c2cnc3c(c2)CC2(CCN(C)CC2)C(=O)N3)oc2ccccc12`: the figures for the solubility in data set [5] and in data set [6] were 83 µg/mL (≈ 181 µM) and 43 µg/mL (≈ 93.8 µM), respectively. The MIC is no more than 0.016 µg/mL in data set [1], 0.25 µg/mL (≈ 0.545 µM) in data set [3] and no more than 0.016 µg/mL in data set [4]. The figures for the IC50 in data set [7] and in data set [2] were 1.8 nM and 20 nM, respectively.
As to `CCCOc1c(CN(C)C(=O)/C=C/c2cnc3c(c2)CC2(CCNCC2)C(=O)N3)cccc1OC`, the figures for the solubility in data set [5] and in data set [6] were 700 µg/mL (≈ 1460 µM) and 520 µg/mL (≈ 1090 µM), respectively. Besides, the MIC in data set [1] came to 0.125 µg/mL (≈ 0.261 µM); in data set [3], 2 µg/mL (≈ 4.18 µM); in data set [4], 0.5 µg/mL (≈ 1.04 µM). The compound further had an IC50 in data set [2] of 71 nM.
As for `Cc1c(CN(C)C(=O)/C=C/c2cnc3c(c2)CC2(CCNCC2)C(=O)N3)sc2ccccc12`, the solubility is 22 µg/mL (≈ 47.8 µM) in data set [5] and 4.8 µg/mL (≈ 10.4 µM) in data set [6]. Also, the minimal inhibitory concentration (MIC) in data set [1] was no more than 0.016 µg/mL; in data set [3], no more than 0.063 µg/mL; in data set [4], 0.063 µg/mL (≈ 0.137 µM). In addition, the results for the IC50 in data set [7] and in data set [2] were 0.4 nM and 48 nM, respectively.
For `Cc1c(CN(C)C(=O)/C=C/c2cnc3c(c2)CC2(CCN(C)CC2)C(=O)N3)sc2ccc(F)cc12`, the values for the solubility in data set [5] and in data set [6] were 790 µg/mL (≈ 1600 µM) and 110 µg/mL (≈ 223 µM), respectively. The MIC was no more than 0.016 µg/mL in data set [1], no more than 0.063 µg/mL in data set [3] and no more than 0.016 µg/mL in data set [4]. Also, the results for the IC50 in data set [7] and in data set [2] were 24 nM and 28 nM, respectively.
For the compound `CN(Cc1cc2ccccc2n1C)C(=O)/C=C/c1cnc2c(c1)CC1(CCNCC1)C(=O)N2`, the solubility in data set [5] and in data set [6] was greater than 100 µg/mL throughout. The MIC was found to be 0.5 µg/mL (≈ 1.13 µM) in data set [1], 0.5 µg/mL (≈ 1.13 µM) in data set [3] and 2 µg/mL (≈ 4.51 µM) in data set [4]. Further, the values for the concentration for half-maximal inhibition (IC50) in data set [7] and in data set [2] were 17 nM and 132 nM, respectively.
Regarding `Cc1c(CN(C)C(=O)/C=C/c2cnc3c(c2)CC2(CCN(C)CC2)C(=O)N3)sc2ccccc12`, the solubility came to 360 µg/mL (≈ 758 µM) in data set [5] and 110 µg/mL (≈ 232 µM) in data set [6]. Moreover, the MIC is no more than 0.016 µg/mL in data set [1], no more than 0.063 µg/mL in data set [3] and no more than 0.016 µg/mL in data set [4]. The IC50 in data set [7] was found to be 2.4 nM; in data set [2] it was 14 nM.

(Values after ChEMBL document CHEMBL1155988, “Spiro-naphthyridinone piperidines as inhibitors of S. aureus and E. coli enoyl-ACP reductase (FabI)” (Bioorg Med Chem Lett, 2009).)
